Results taken from patent US6319910A, “Method for inhibiting cyclooxygenase-2 and tumor necrosis factor alpha” (Hospital for Joint Diseases, priority 1998, dated 2001).
“Also recorded” adds a separate entry of the source.

How the values were obtained:
COX-2 = assay: Expression/modification (size) of COX-2 in LPS-stimulated murine macrophages, Western blot; type: cell-based; settings: LPS 100 ng/ml
Description: (§1) RAW 263.7 cells were grown as previously described (Amin et al, 1995b). Murine macrophages stimulated with 100 ng/ml LPS were incubated with CMT-3 or tunicamycin (a glycosylation inhibitor). […] Nitrite and PGE2 were estimated as previously described (Amin et al, 1995b). It is quite possible that CMT-3 may inhibit COX-2 and PGE2 production by post translational modification of COX-2 which may be similar to tunicamycin inhibition. The data represents the mean±SD evaluated by T test (n=3).
Murine macrophage cells were cultivated as previously described (Amin et al, 1995b). […] cells were stimulated with 100 ng/ml of LPS in the presence of CMT-3, CMT-5 and glycosylation inhibitor, tunicamycin. The cells were grown for 16 hr and harvested. The cell free extracts were prepared as previously described (Amin et al, 1995b). In FIG. 4A, 50 μg of protein was loaded in each well and run on SDS-PAGE gels and blotted onto Western blots using a specific anti COX-2 antibody as previously described (Amin et al, 1997a). The positive control is a standard COX-2. […] The size is approximately 2000 D smaller (CMT-3 form) than the native COX-2 shown as a standard. […] These experiments indicate that CMT-3 induces modification of the COX-2 protein. The SDS PAGE analysis and Western blotting of COX-2 was carried out as described above.

RAW 264.7 cells [1] = assay: Nitrite (NO) production/accumulation in LPS-stimulated RAW 264.7 cells; type: cell-based, murine; settings: LPS 100 ng/ml; for Nitrite / inhibition at 10 µg/mL: compound 10 μg/ml; for Effect on NO production: words; for inhibition at 10 µg/mL: Mus musculus, RAW264.7, 16 h
Description: (§2) Murine macrophages (RAW 263.7 cells) which were grown in Dulbecco's modified eagle medium (DMEM) containing 10% fetal bovine serum, 2 mM glutamine, 50 U/ml penicillin and 50 μg/ml streptomycin, were stimulated with 100 ng/ml LPS to induce both NOS and COX-2 at 16 hr. […] The data presented in FIG. 1 represents mean±SD as examined by T test were n=3.
(§3) The effects of CMTs 1, 2, 3, 5 and 8 on PGE2 and NO accumulation in RAW 264.7 cells were further evaluated as described above for CMT-3. […]

NOS [2] = assay: NOS expression in LPS-stimulated murine macrophages; type: cell-based; settings: FIG. 2; LPS 100 ng/ml; words
Description: as §1

OA-affected cartilage = assay: Spontaneous PGE2 release by OA-affected cartilage (ex vivo organ culture); type: cell-based, human
Description: Human osteoarthritis affected cartilage spontaneously release nitric oxide (NO) and PGE2 in the medium as previously reported (Amin et al, 1995a; 1997a). The OA-organ cultures were set up as described (Amin et al, 1995a; 1997a). Briefly, total knee articular cartilage from tibial plateau and femoral condyle were harvested from OA-affected patients. The cartilage was mixed and cut into 3-mm discs and 4-6 discs were placed in triplicate or quadruplicate, in a 24-well plate in 2.0 ml of Ham's F-12 medium supplemented with 0.2% endotoxin free human albumin, 10 mM Hepes pH 7.4 and antibiotics in the presence of various modulators, as previously described (Amin et al, 1995a; 1997a). CMT-8 was used at pharmacologically relevant concentrations in DMSO (<0.01% final concentration) as carrier. An equivalent amount of DMSO was also added in the control cultures.
The p value between control and CMT-8 treated values for PGE2≤0.1 (insignificant) whereas the p values between NMMA treated cartilage and CMT-8 treated cartilage was ≤0.001 (significant). The data are represented as mean±SD as examined by T test when n=3. Data represent±SD value as determined by Student's t test n=4. The P values described are compared with control unstimulated OA-cartilage. The data represents one of the two similar experiments. P values for PGE2 and Nitrite=^a≤0.5; ^b≤0.1; ^c≤0.05; ^d≤0.01.

NOS [3] = settings: previously shown; words; cited from earlier work
RAW 264.7 cells [4] = assay: PGE2 production/accumulation in LPS-stimulated RAW 264.7 cells; type: cell-based, murine; settings: for inhibition at 10 µg/mL: Mus musculus, RAW264.7, 16 h, read-out: PGE2 % Inhibition or (Increase)
Description: as §2, §3

[5] = words; cited from earlier work
[6] = Experiment II, LPS 100 ng/ml, compound 10 μg/ml, 16 hours

For `NC(=O)C1=C(O)C2(O)C(=O)C3=C(O)c4c(O)cccc4CC3CC2CC1=O` (centres unmarked) [CMT-3, 6-demethyl-6-deoxy-4-dedimethylaminotetracycline], the “Effect on COX-2 expression” value (COX-2; FIG. 2, words) was “inhibit”, the “Decrease in size of COX-2 versus native COX-2” value (COX-2; FIG. 4A, 16 hr, Western blot) was “approximately 2000 D” and the “Effect on size of COX-2” value (COX-2; FIG. 4A, 16 hr, Western blot, words) was “decrease in the size of COX-2”. For the same molecule, the Nitrite (RAW 264.7 cells [1]; Experiment I, 16 hours) was 24.7 µM, the Nitrite (RAW 264.7 cells [1]; Experiment II, 16 hours) was 11.7 µM and the “Effect on NO production” value (RAW 264.7 cells [1]; FIG. 1, 16 hours) was “blocks both NO and PGE2 production”. The “Effect on NO production” value (RAW 264.7 cells [1]; FIG. 2) was “inhibit”, the inhibition at 10 µg/mL (RAW 264.7 cells [1]; Experiment I, 16 hours) was 48% and the inhibition at 10 µg/mL (RAW 264.7 cells [1]; Experiment II, 16 hours) was 46%. The “Effect on NOS expression” value (NOS [2]) was “inhibit”, the inhibition at 5 µg/mL (OA-affected cartilage; Homo sapiens, Table 2, 5 μg/ml) was 60% and the PGE2 (OA-affected cartilage; Table 2, 5 μg/ml) was 88.0 ± 21.4 ng/mL. For the same molecule, the “Effect on PGE2 production” value (OA-affected cartilage; human OA-affected cartilage, words) was “significantly inhibit; also recorded: inhibits COX-2 expression and PGE2 production”, the NOS activity (NOS [3]) was “inhibit NOS activity” and the PGE2 accumulation (RAW 264.7 cells [4]; 16 h, 10 ug/mL) was 8.7 ± 2.4 ng/mL. For the same molecule, the PGE2 accumulation (RAW 264.7 cells [4]; [6]) was 6.5 ± 0.5 ng/mL, the “Effect on L-NMMA induced PGE2 production” value (RAW 264.7 cells [4]; FIG. 1, CMT-3+L-NMMA, LPS 100 ng/ml, words) was “blocks L-NMMA induced PGE2 production” and the “Effect on PGE2 production” value (RAW 264.7 cells [4]; FIG. 1, LPS 100 ng/ml, 16 hours, words) was “blocks both NO and PGE2 production”. For the same molecule, the “Effect on PGE2 production” value (RAW 264.7 cells [4]; FIG. 2, LPS 100 ng/ml, words) was “inhibit”, the inhibition at 10 µg/mL (RAW 264.7 cells [4]; Experiment I, LPS 100 ng/ml, compound 10 μg/ml, 16 hours) was 66% and the inhibition at 10 µg/mL (RAW 264.7 cells [4]; [6]) was 67%. For the same molecule, the “Effect on COX-2 activity” value (RAW 264.7 cells [4]; independent of intracellular NO, words) was “inhibits COX-2 activity independent of intracellular NO concentrations” and the Antimicrobial activity [5] was “no antimicrobial activity”.
